Patent US20230330178A1, “USE OF POLYPEPTIDE IN DRUG FOR PREVENTING AND TREATING PNEUMONIA” (priority 2020, published 2023)
Peptide text beside a SMILES is read from it.

Legend:
[1] = test system: SD rats; format: in vivo; design: MV: minute ventilation: unit not given here
Description: (§1) Animals in the blank administration group were not modeled, and inhaled a high-concentration polypeptide aerosol (0.48 mg/L) through nose and mouth every day. Animals in the blank control group were instilled with a 0.5 mL 0.9% sodium chloride injection through trachea. After the remaining groups were slightly anesthetized with ether, the model control group, the erythromycin group, the budesonide group, the low-dose polypeptide treatment group, and the high-dose polypeptide treatment group were instilled with a 1×10^8 CFU/mL mixed bacteria solution of Staphylococcus aureus, Streptococcus pneumoniae, and Escherichia coli through trachea, 0.5 mL/rat, respectively, and the blank control group was instilled with a 0.9% sodium chloride injection of a same volume.
(§2) Each group was administrated for the first time at 2 h after modeling. After the experiment begun, 7.16 mg/mL and 71.6 mg/mL peptide solutions were atomized into aerosol particles with target concentrations of 0.07 and 0.48 mg/L every day, and the animals in the low-dose peptide treatment group and the high-dose peptide treatment group (0.54 mg/kg and 3.7 mg/kg, corresponding to drug concentrations 0.07 and 0.48 mg/L respectively) inhaled the aerosol particles with corresponding concentrations through mouth and nose respectively for 7 consecutive days, 10 min/time, 3 times a day; the blank administration group (cumulative dose 22.2 mg/kg, corresponding to a drug concentration 0.48 mg/L) inhaled 0.48 mg/L peptide aerosol particles through mouth and nose every day for 7 consecutive days, 20 min/time, 3 times a day; the blank control group and the model control group inhaled a 0.9% sodium chloride solution for the same time according to the same method; the erythromycin group and the budesonide group were administrated with a 5 mg/mL erythromycin solution and a 0.05 mg/mL budesonide suspension respectively for the same time according to the same method; and body weight of each group was tested every day.
(§3) Except the blank administration group, half animals of the remaining groups were randomly selected for lung function test, gross anatomy examination, and pathological test on D4 day, and lungs of 3 animals in each group were selected for bacteria culture and counting; and on D8 day, the remaining animals were subjected to lung function test, gross anatomy examination, and pathological test, and lungs of 3 animals in each group were selected for bacteria culture and counting (the blank control group and the blank administration group were not examined).
Experimental steps of gross anatomical examination and pathological test: the rats to be tested were anesthetized by intraperitoneal injection of 20% ethyl carbamate (dose 1000 mg/kg), and lung functions of the rats in each group were first tested with a lung function tester. Blood was collected from a ventral aorta, partial pressure of oxygen (PaO2) and partial pressure of carbon dioxide (PaCO2) in the blood of the rats were measured by using a blood gas analyzer, then left lower lobe lung tissues were taken, fixed in formalin, embedded, sectioned, and stained with HE, and pathological changes were observed under the light microscope.

[2] = test system: Streptococcus pneumoniae; experiment: animal or person; format: in vivo; conditions: vs model control group
Description: as §1
(§4) A specific modeling method was as follows: a rat was anesthetized by ether inhalation and lied on an anatomical plate at an angle of 30-45°, trachea of the rat was exposed under an otoscope, a long puncture needle was connected to a 1 mL syringe and inserted into the trachea, each rat was injected with 0.5 mL of mixed bacteria, the puncture needle was pulled out after the injection, the rat was still kept at the original tilt position for about 10 min, and the bacteria solution flowed into bronchus and alveoli due to gravity to cause infection, so as to induce a rat pneumonia model.
as §2, §3
(§5) Experimental steps of bacteria culture: except the blank administration group, six animals were randomly selected from each of the remaining groups (three animals were randomly selected from the first and last anatomies), left middle lobe lung tissues were taken, washed with 0.9% sodium chloride injection, added with double weight of 0.9% sodium chloride injection, and ground into homogenate, the homogenate was inoculated into a meat extract agar medium and cultured at 37° C. for 16 to 18 h, bacteria were isolated, and each isolated bacteria suspension was diluted to 10^−1, 10^−2, 10^−3, 10^−4, 10^−5, 10^−6, 10^−7 and 10^−8 according to 10 times gradient, namely, 9 mL normal saline plus 1 mL bacteria suspension was 10^−1, and so on. […]

[3] = test system: Escherichia coli; experiment: animal or person; format: in vivo; conditions: vs model control group
Description: as §1, §4, §2, §3, §5

[4] = test system: Staphylococcus aureus; experiment: animal or person; format: in vivo; conditions: vs model control group
Description: as §1, §4, §2, §3, §5

[5] = Body weight of pneumonia model rats during the experiment; format: in vivo, SD rats; conditions: FIG. 4
Description: as §2

[6] = D8, not modeled rats (blank administration group), cumulative dose 22.2 mg/kg (0.48 mg/L aerosol) inhaled 7 days
[7] = D4, high-dose 3.7 mg/kg (0.48 mg/L aerosol) inhaled
[8] = D4, low-dose 0.54 mg/kg (0.07 mg/L aerosol) inhaled
[9] = D8, high-dose 3.7 mg/kg (0.48 mg/L aerosol) inhaled
[10] = D8, low-dose 0.54 mg/kg (0.07 mg/L aerosol) inhaled

CSCC[C@H](N)C(=O)NCC(=O)N[C@@H](CCCNC(=N)N)C(=O)N[C@@H](Cc1ccccc1)C(=O)N[C@@H](CCCCN)C(=O)N[C@@H](CCCNC(=N)N)C(=O)N[C@@H](Cc1ccccc1)C(=O)N[C@@H](CCCNC(=N)N)C(=O)N[C@@H](CCCCN)C(=O)N[C@@H](CCCCN)C(=O)N[C@@H](Cc1ccccc1)C(=O)N[C@@H](CCCCN)C(=O)N[C@@H](CCCCN)C(=O)N[C@@H](CC(C)C)C(=O)N[C@@H](Cc1ccccc1)C(=O)N[C@@H](CCCCN)C(=O)N[C@@H](CCCCN)C(=O)N[C@@H](CC(C)C)C(=O)N[C@@H](CO)C(=O)O [polypeptide] (H-MGRFKRFRKKFKKLFKKLS-OH)
FEV200 (forced expiratory volume) [1, 6]: 3.77 ± 1.07 mL
FEV200/FVC [1, 6]: 93.81 ± 3.03%
FVC: forced vital capacity [1, 6]: 4.01 ± 1.08 mL
MV: minute ventilation [1, 6]: 0.20 ± 0.04
PaCO2: partial pressure of carbon dioxide [1, 6]: 33.09 ± 8.33 mmHg
PaO2: partial pressure of oxygen [1, 6]: 82.77 ± 11.87 mmHg
VT: tidal volume [1, 6]: 1.76 ± 0.25 mL
arterial blood pH [1, 6]: 7.46 ± 0.04
f: respiratory rate [1, 6]: 116 ± 15 time/min
Lung tissue microscopy ([1]; D8, not modeled rats (blank administration group), cumulative dose 22.2 mg/kg aerosol inhaled): no obvious abnormality
lung function indexes, and WBC, Neu, TNF-α, and IL-6 in alveolar lavage fluid compared with the blank control group ([1]; SD rats inhaled 22.2 mg/kg polypeptide solution through nose and mouth for 7 consecutive days): no significant difference
body weight compared with the blank control group ([1]; not modeled rats (blank administration group), cumulative dose 22.2 mg/kg, FIG. 4): no significant difference
Inhibition rate of streptococcus pneumoniae [2, 7]: 90.49%
Inhibition rate of streptococcus pneumoniae [2, 8]: 84.14%
Inhibition rate of streptococcus pneumoniae [2, 9]: 98.74%
Inhibition rate of streptococcus pneumoniae [2, 10]: 94.95%
Inhibition rate of escherichia coli [3, 7]: 92.16%
Inhibition rate of escherichia coli [3, 8]: 71.19%
Inhibition rate of escherichia coli [3, 9]: 96.57%
Inhibition rate of escherichia coli [3, 10]: 85.77%
Inhibition rate of staphylococcus aureus [4, 7]: 90.99%
Inhibition rate of staphylococcus aureus [4, 8]: 80.56%
Inhibition rate of staphylococcus aureus [4, 9]: 97.43%
Inhibition rate of staphylococcus aureus [4, 10]: 96.75%
body weight compared with the model control group ([5]; high-dose 3.7 mg/kg (0.48 mg/L aerosol) inhaled): no significant difference
body weight compared with the model control group ([5]; low-dose 0.54 mg/kg (0.07 mg/L aerosol) inhaled): no significant difference
